Experimental data from patent US11677091B2, “Use of quaternary ammonium salt-type anthraquinone-based active material and salt cavern organic aqueous redox flow battery” (CHINA SALT JINTAN CO., LTD., priority 2020, dated 2023).

Assay: Electrochemical characterization of the active material (rotating disk electrode, diffusion coefficient, charge transfer rate constant)
Type: physicochemical
Conditions: on a graphite felt electrode
Excerpt: FIG. 2 to FIG. 9 show the characterization of electrochemical performances of the prepared active material.

charge transfer rate constant: 0.00302 cm/s
diffusion coefficient: 3.94×10^−6 cm^2/s
Structure (SMILES): C[N+](C)(C)CCCOc1cccc2c1C(=O)c1c(OCCC[N+](C)(C)C)cccc1C2=O [Embodiment 1]
